Experimental data: PMC12203311, “Design, synthesis, in silico and in vitro evaluation of pyrrole–indole hybrids as dual tubulin and aromatase inhibitors with potent anticancer activities” (RSC Advances, 2025)
Read-outs that look alike come from different tables or passages of the source.

Experiments:
Experiment in all cases: NCI60 five-dose screen
U251 = assay type: cell-based; conditions: Homo sapiens, U-251, U251, CNS cancer
IGROV1 = assay type: cell-based; conditions: Homo sapiens, IGROV-1; IGROV1, ovarian cancer
BT-549 = assay type: cell-based; conditions: Homo sapiens, BT-549, breast cancer
SK-MEL-28 = assay type: cell-based; conditions: Homo sapiens, SK-MEL-28, melanoma
OVCAR-4 = assay type: cell-based; conditions: Homo sapiens, OVCAR-4, ovarian cancer
CAKI-1 = assay type: cell-based; conditions: Homo sapiens, CAKI-1, renal cancer
RPMI-8226 = assay type: cell-based; conditions: Homo sapiens, RPMI-8226, leukemia
LOX IMVI = assay type: cell-based; conditions: Homo sapiens, melanoma
EKVX = assay type: cell-based; conditions: Homo sapiens, NSC lung cancer
SN12C = assay type: cell-based; conditions: Homo sapiens, renal cancer
COLO 205 = assay type: cell-based, human; conditions: Homo sapiens
SK-OV-3 = assay type: cell-based; conditions: Homo sapiens, SK-OV-3, ovarian cancer
UACC-62 = assay type: cell-based; conditions: Homo sapiens, UACC-62, melanoma
MCF7 = assay type: cell-based; conditions: Homo sapiens, MCF7, breast cancer
HL-60 (TB) = assay type: cell-based; conditions: Homo sapiens, leukemia
PC-3 = assay type: cell-based; conditions: Homo sapiens, PC-3, prostate cancer
ACHN = assay type: cell-based; conditions: Homo sapiens, renal cancer
NCI-H522 = assay type: cell-based; conditions: Homo sapiens, NCI-H522, NSC lung cancer
SNB-75 = assay type: cell-based; conditions: Homo sapiens, SNB-75, CNS cancer
SF-295 = assay type: cell-based; conditions: Homo sapiens, SF-295, CNS cancer
MDA-MB-231/ATCC = assay type: cell-based; conditions: Homo sapiens, breast cancer
TK-10 = assay type: cell-based; conditions: Homo sapiens, TK-10, renal cancer
SK-MEL-2 = assay type: cell-based; conditions: Homo sapiens, SK-MEL-2, melanoma
NCI-H23 = assay type: cell-based; conditions: Homo sapiens, NCI-H23, NSC lung cancer
OVCAR-3 = assay type: cell-based; conditions: Homo sapiens, OVCAR-3, ovarian cancer
NCI-H460 = assay type: cell-based; conditions: Homo sapiens, NCI-H460, NSC lung cancer
OVCAR-8 = assay type: cell-based; conditions: Homo sapiens, OVCAR-8, ovarian cancer
DU-145 = assay type: cell-based; conditions: Homo sapiens, DU-145, prostate cancer
HOP-62 = assay type: cell-based; conditions: Homo sapiens, HOP-62, NSC lung cancer
K-562 = assay type: cell-based; conditions: Homo sapiens, K562, K-562, leukemia
SNB-19 = assay type: cell-based; conditions: Homo sapiens, SNB-19, CNS cancer
NCI/ADR-RES = assay type: cell-based, human; conditions: Homo sapiens, ovarian cancer
A549/ATCC = assay type: cell-based; conditions: Homo sapiens, NSC lung cancer
UACC-257 = assay type: cell-based; conditions: Homo sapiens, UACC-257, melanoma
SK-MEL-5 = assay type: cell-based, human; conditions: for CC50: read-out: LC50 (the source's name)
HCT-15 = assay type: cell-based; conditions: Homo sapiens, HCT-15, colon cancer
[1] = read-out: LC50 (the source's name)

Question: What does the source list for Cc1cc(C)c(/C=N/NC(=O)c2[nH]c3ccc(Br)cc3c2-c2ccccc2)[nH]1 [Derivative 3c, (E)-5-Bromo-N′-((3,5-dimethyl-1H-pyrrol-2-yl)methylene)-3-phenyl-1H-2-carbohydrazide]?
Answer: GI50 (U251): 3.21 µM; CC50 (U251; [1]): 35.7 µM; GI50 (IGROV1): 2470 nM; GI50 (BT-549): 5.04 µM; CC50 (BT-549; [1]): 47.9 µM; GI50 (SK-MEL-28): 3.81 µM; CC50 (SK-MEL-28; [1]): 38.8 µM; GI50 (OVCAR-4): 3.55 µM; CC50 (OVCAR-4; [1]): 40.7 µM; GI50 (CAKI-1): 3.17 µM; CC50 (CAKI-1; [1]): 39.1 µM; GI50 (RPMI-8226): 2430 nM; CC50 (RPMI-8226; [1]): > 100 µM; GI50 (LOX IMVI): 2430 nM; CC50 (LOX IMVI; [1]): 30.2 µM; GI50 (EKVX): 3.24 µM; CC50 (EKVX; [1]): 35.4 µM; GI50 (SN12C): 2580 nM; CC50 (SN12C; [1]): 32.3 µM; CC50 (COLO 205; COLO 205, COLO 205, colon cancer, read-out: LC50 (the source's name)): 52.3 µM; GI50 (COLO 205; COLO 205, colon cancer): 3.25 µM; GI50 (SK-OV-3): 6.81 µM; CC50 (SK-OV-3; [1]): 70.8 µM; GI50 (UACC-62): 2360 nM; CC50 (UACC-62; [1]): 32.4 µM; GI50 (MCF7): 2300 nM; CC50 (MCF7; [1]): 37.2 µM; GI50 (HL-60 (TB)): 2400 nM; CC50 (HL-60 (TB); [1]): > 100 µM; GI50 (PC-3): 2060 nM; CC50 (PC-3; [1]): 47.6 µM; GI50 (ACHN): 3.03 µM; CC50 (ACHN; [1]): 34.2 µM; GI50 (NCI-H522): 2610 nM; CC50 (NCI-H522; [1]): 32.7 µM; GI50 (SNB-75): 2680 nM; CC50 (SNB-75; [1]): 43.9 µM; GI50 (SF-295): 2760 nM; CC50 (SF-295; [1]): 29.5 µM; GI50 (MDA-MB-231/ATCC): 2780 nM; CC50 (MDA-MB-231/ATCC; [1]): 32.8 µM; GI50 (TK-10): 7.32 µM; CC50 (TK-10; [1]): 45.2 µM; GI50 (SK-MEL-2): 3.37 µM; CC50 (SK-MEL-2; [1]): 41.7 µM; GI50 (NCI-H23): 2590 nM; CC50 (NCI-H23; [1]): 35.2 µM; GI50 (OVCAR-3): 2530 nM; CC50 (OVCAR-3; [1]): 36.4 µM; GI50 (NCI-H460): 2830 nM; CC50 (NCI-H460; [1]): 37.9 µM; GI50 (OVCAR-8): 3.1 µM; CC50 (OVCAR-8; [1]): 45 µM; GI50 (DU-145): 4.07 µM; CC50 (DU-145; [1]): 38.9 µM; GI50 (HOP-62): 2970 nM; CC50 (HOP-62; [1]): 69.3 µM; GI50 (K-562): 2430 nM; CC50 (K-562; [1]): > 100 µM; GI50 (SNB-19): 3.86 µM; CC50 (SNB-19; [1]): 39.4 µM; GI50 (NCI/ADR-RES): 2110 nM; CC50 (NCI/ADR-RES; [1]): 19.3 µM; GI50 (A549/ATCC): 3.82 µM; CC50 (A549/ATCC; [1]): 45.4 µM; GI50 (UACC-257): 4.35 µM; CC50 (UACC-257; [1]): 49.2 µM; CC50 (SK-MEL-5; Homo sapiens, SK-MEL-5, SK-MEL-5, melanoma): 19.3 µM; GI50 (SK-MEL-5; Homo sapiens, SK-MEL-5, melanoma): 2520 nM; CC50 (SK-MEL-5; SK-MEL-5, melanoma): 28.8 µM; GI50 (HCT-15): 2910 nM; CC50 (HCT-15; [1]): 37.2 µM
